From US9617602B2, “Methods and compositions for determining resistance to androgen receptor therapy” (Aragon Pharmaceuticals, Inc., priority 2012, dated 2017)

Key:
Type in all cases: cell-based, human
[1] = system: Class 2 resistant cell lines; test: Transcriptional reporter assay (probasin-luciferase); conditions: Class 2
Experimental: (§1) With the exception of the LNCaP/AR(cs)-Luc cells that contain an integrated androgen responsive reporter, cells were transiently transfected using Lipofectin® (Life Technologies) according to the manufacturer's protocol. […] Following transfection, the cells were incubated for 4 hours.
(§2) Following 48 hour incubation the medium was removed and the cells were lysed in 40 μL of lysis buffer (25 mM Tris Phosphate, 2 mM CDTA, 10% Glycerol, 0.5% Triton X-100, 2 mM DTT).

LNCaP/AR(cs) cells [2] = test: Proliferation assay (CellTiter-Glo), agonist and antagonist mode; conditions: for viability at 0.0001 µM: Homo sapiens, LNCaP/AR, 168 h, read-out: Antagonist Proliferation Assay (% Viability); for Agonist Proliferation Assay (% Viability): LNCaP/AR(cs), 7 days
[3] = system: Class 1 ARN-509- and MDV3100-resistant cell lines; test: as above; conditions: for Agonist Proliferation Assay (% Viability): Class 1, 7 days; for viability at 0.0001 µM: Homo sapiens, 168 h, read-out: Antagonist Proliferation Assay (% Viability)
[4] = system: Class 1 resistant cell lines; test: Transcriptional reporter assay (probasin-luciferase); conditions: Class 1
Experimental: as §1, §2

LNCaP cells [5] = test: as above
Experimental: as §1, §2

LNCaP cells [6] = test: Proliferation assay (CellTiter-Glo), agonist and antagonist mode; conditions: for viability at 0.0001 µM: Homo sapiens, 168 h, read-out: Antagonist Proliferation Assay (% Viability); for Agonist Proliferation Assay (% Viability): 7 days
[7] = system: Class 2 MDV3100- and ARN-509-resistant cell lines; test: as above; conditions: for Agonist Proliferation Assay (% Viability): Class 2, 7 days; for viability at 0.0001 µM: Homo sapiens, 168 h, read-out: Antagonist Proliferation Assay (% Viability)
LNCaP/AR(cs) cells [8] = test: Transcriptional reporter assay (probasin-luciferase)
Experimental: as §1, §2

LNCaP ARN-509r1 cells = test: Endogenous gene transcriptional assay (real-time PCR of androgen responsive genes); conditions: 1 nM R1881 or 30 μM compound, vehicle=1.00
Experimental: (§3) Total RNA was isolated using the Aurum™ total RNA isolation kit (BIO-RAD, Hercules, Calif.). RNA (1 μg) was reverse transcribed using the iScript cDNA synthesis kit (BIO-RAD, Hercules, Calif.) to produce cDNA. Real-time PCR was performed using the Applied Biosystems 7900HT instrument and SYBR Green PCR Master Mix (Applied Biosystems, Foster City, Calif.). PCR reactions were performed in 6 μL according to the manufacturer's protocol and a thermocycle protocol of 95° C. for 10 minutes followed by 40 cycles of 95° C. for 15 seconds and 58° C. for 1 minute. Androgen responsive gene (PSA, SLUG, TMPRSS2, STEAP4, FKBP5, ORM1, NOV, FASN, NKX3.1, AMIGO2, BDNF, CAMK2N1, HPGD, NCAPD3, PLD1) expression was normalized to GAPDH expression and expressed relative to vehicle treatment of the parental cell line.
(§4) Gene expression was normalized to GAPDH as described above.

LNCaP/AR(cs) cells [9] = test: as above
Experimental: as §3, §4

AR in LNCaP/AR(cs) cells = test: AR chromatin immunoprecipitation (ChIP) of AR target genes; conditions: 1 nM R1881, 4 hours
Excerpt: The samples were amplified on the ABI 7900HT instrument.

LNCaP ARN-509r2 cells = test: Endogenous gene transcriptional assay (real-time PCR of androgen responsive genes); conditions: 1 nM R1881 or 30 μM compound, vehicle=1.00
Experimental: as §3, §4

LNCaP/AR-Luc cells = test: as above; conditions: 1 nM R1881 or 30 μM compound, vehicle=1.00
Experimental: as §3, §4

LNCaP cells [10] = test: as above; conditions: 1 nM R1881 or 30 μM compound, vehicle=1.00
Experimental: as §3, §4

[11] = [Antagonists] = 50 μM in presence of R1881
[12] = Table 4A, 1 nM R1881 or 30 μM compound, vehicle=1.00
[13] = Tables 9A/9B, 1 nM R1881, vehicle=1.00

CC(O)(CS(=O)(=O)c1ccc(F)cc1)C(=O)Nc1ccc(C#N)c(C(F)(F)F)c1 (stereo not shown) [Bicalutamide, bicalutamide]
Agonist Transcriptional Reporter Assay (% Max Activity) ([1]; [Antagonists] = 50 μM): + (‘+’ = <5) | Antagonist Transcriptional Reporter Assay (% Max Activity) [1, 11]: + (‘+’ = <5) | viability at 0.0001 µM (LNCaP/AR(cs) cells [2]): < 30% | Agonist Proliferation Assay (% Viability) (LNCaP/AR(cs) cells [2]; [Antagonists] = 10 μM): + (‘+’ = <30) | Agonist Proliferation Assay (% Viability) ([3]; [Antagonists] = 10 μM): ++ (‘++’ = >30) | viability at 0.0001 µM [3]: > 30% | Agonist Transcriptional Reporter Assay (% Max Activity) ([4]; [Antagonists] = 50 μM): ++ (‘++’ = >5) | Antagonist Transcriptional Reporter Assay (% Max Activity) [4, 11]: ++ (‘++’ = >5) | Agonist Transcriptional Reporter Assay (% Max Activity) (LNCaP cells [5]; [Antagonists] = 50 μM): + (‘+’ = <5) | Antagonist Transcriptional Reporter Assay (% Max Activity) (LNCaP cells [5]; [11]): + (‘+’ = <5) | viability at 0.0001 µM (LNCaP cells [6]): < 30% | Agonist Proliferation Assay (% Viability) (LNCaP cells [6]; [Antagonists] = 10 μM): + (‘+’ = <30) | Agonist Proliferation Assay (% Viability) ([7]; [Antagonists] = 10 μM): + (‘+’ = <30) | viability at 0.0001 µM [7]: > 30% | Agonist Transcriptional Reporter Assay (% Max Activity) (LNCaP/AR(cs) cells [8]; [Antagonists] = 50 μM): + (‘+’ = <5) | Antagonist Transcriptional Reporter Assay (% Max Activity) (LNCaP/AR(cs) cells [8]; [11]): + (‘+’ = <5)

C[C@]1(O)CC[C@H]2[C@@H]3CCC4=CC(=O)CCC4=C3C=C[C@@]21C [R1881, methyltrienolone]
Agonist Transcriptional Reporter Assay (% Max Activity) ([1]; [R1881] = 10 nM): >90% | Antagonist Transcriptional Reporter Assay (% Max Activity) ([1]; [R1881] = 10 nM): >90% | viability at 0.0001 µM (LNCaP/AR(cs) cells [2]): 100% | Agonist Proliferation Assay (% Viability) (LNCaP/AR(cs) cells [2]; [R1881] = 0.1 nM): 100.0% | AMIGO2 gene expression (LNCaP ARN-509r1 cells): 0.21 | BDNF gene expression (LNCaP ARN-509r1 cells): 0.31 | CAM2KN1 gene expression (LNCaP ARN-509r1 cells): 0.01 | FASN gene expression (LNCaP ARN-509r1 cells): 3.12 | FKBP5 gene expression (LNCaP ARN-509r1 cells): 53.45 | HPGD gene expression (LNCaP ARN-509r1 cells): 61.39 | NCAPD3 gene expression (LNCaP ARN-509r1 cells): 90.51 | NKX3.1 gene expression (LNCaP ARN-509r1 cells): 8.11 | NOV gene expression (LNCaP ARN-509r1 cells): 0.03 | ORM1 gene expression (LNCaP ARN-509r1 cells): 1296.13 | PLD1 gene expression (LNCaP ARN-509r1 cells): 0.03 | PSA gene expression (LNCaP ARN-509r1 cells): 85.63 | SLUG gene expression (LNCaP ARN-509r1 cells): 164.28 | STEAP4 gene expression (LNCaP ARN-509r1 cells): 1184.45 | TMPRSS2 gene expression (LNCaP ARN-509r1 cells): 37.27 | AMIGO2 gene expression (LNCaP/AR(cs) cells [9]; [12]): 0.54 | BDNF gene expression (LNCaP/AR(cs) cells [9]; [12]): 0.48 | CAM2KN1 gene expression (LNCaP/AR(cs) cells [9]; [12]): 0.05 | FASN gene expression (LNCaP/AR(cs) cells [9]; [12]): 7.11 | FKBP5 gene expression (LNCaP/AR(cs) cells [9]; [12]): 97.01 | HPGD gene expression (LNCaP/AR(cs) cells [9]; [12]): 183.55 | NCAPD3 gene expression (LNCaP/AR(cs) cells [9]; [12]): 93.05 | NKX3.1 gene expression (LNCaP/AR(cs) cells [9]; [12]): 8.82 | NOV gene expression (LNCaP/AR(cs) cells [9]; [12]): 0.04 | ORM1 gene expression (LNCaP/AR(cs) cells [9]; [12]): 3444.31 | PLD1 gene expression (LNCaP/AR(cs) cells [9]; [12]): 0.02 | PSA gene expression (LNCaP/AR(cs) cells [9]; [12]): 19.16 | SLUG gene expression (LNCaP/AR(cs) cells [9]; [12]): 89.88 | STEAP4 gene expression (LNCaP/AR(cs) cells [9]; [12]): 1314.23 | TMPRSS2 gene expression (LNCaP/AR(cs) cells [9]; [12]): 17.51 | AMIGO2 gene expression (LNCaP/AR(cs) cells [9]; [13]): 0.98 | BDNF gene expression (LNCaP/AR(cs) cells [9]; [13]): 0.86 | CAM2KN1 gene expression (LNCaP/AR(cs) cells [9]; [13]): 0.04 | FASN gene expression (LNCaP/AR(cs) cells [9]; [13]): 4.12 | FKBP5 gene expression (LNCaP/AR(cs) cells [9]; [13]): 100.51 | HPGD gene expression (LNCaP/AR(cs) cells [9]; [13]): 324.60 | NCAPD3 gene expression (LNCaP/AR(cs) cells [9]; [13]): 95.54 | NKX3.1 gene expression (LNCaP/AR(cs) cells [9]; [13]): 12.72 | NOV gene expression (LNCaP/AR(cs) cells [9]; [13]): 0.05 | ORM1 gene expression (LNCaP/AR(cs) cells [9]; [13]): 6987.01 | PLD1 gene expression (LNCaP/AR(cs) cells [9]; [13]): 0.03 | PSA gene expression (LNCaP/AR(cs) cells [9]; [13]): 22.14 | SLUG gene expression (LNCaP/AR(cs) cells [9]; [13]): 91.84 | STEAP4 gene expression (LNCaP/AR(cs) cells [9]; [13]): 1498.46 | TMPRSS2 gene expression (LNCaP/AR(cs) cells [9]; [13]): 35.42 | Agonist Proliferation Assay (% Viability) ([3]; [R1881] = 0.1 nM): 100.0% | viability at 0.0001 µM [3]: 100% | Effect of R1881 on proliferation of Class 1 cells ([3]; high concentrations): inhibits proliferation | Agonist Transcriptional Reporter Assay (% Max Activity) ([4]; [R1881] = 10 nM): >90% | Antagonist Transcriptional Reporter Assay (% Max Activity) ([4]; [R1881] = 10 nM): >90% | Agonist Transcriptional Reporter Assay (% Max Activity) (LNCaP cells [5]; [R1881] = 10 nM): >90% | Antagonist Transcriptional Reporter Assay (% Max Activity) (LNCaP cells [5]; [R1881] = 10 nM): >90% | viability at 0.0001 µM (LNCaP cells [6]): 100% | Agonist Proliferation Assay (% Viability) (LNCaP cells [6]; [R1881] = 0.1 nM): 100.0% | Agonist Proliferation Assay (% Viability) ([7]; [R1881] = 0.1 nM): 100.0% | viability at 0.0001 µM [7]: 100% | Agonist Transcriptional Reporter Assay (% Max Activity) (LNCaP/AR(cs) cells [8]; [R1881] = 10 nM): >90% | Antagonist Transcriptional Reporter Assay (% Max Activity) (LNCaP/AR(cs) cells [8]; [R1881] = 10 nM): >90% | AR DNA binding (ChIP), LNCaP/AR(cs) cells (AR in LNCaP/AR(cs) cells): promoted AR DNA | AMIGO2 gene expression (LNCaP ARN-509r2 cells): 0.55 | BDNF gene expression (LNCaP ARN-509r2 cells): 0.47 | CAM2KN1 gene expression (LNCaP ARN-509r2 cells): 0.02 | FASN gene expression (LNCaP ARN-509r2 cells): 4.82 | FKBP5 gene expression (LNCaP ARN-509r2 cells): 48.50 | HPGD gene expression (LNCaP ARN-509r2 cells): 59.30 | NCAPD3 gene expression (LNCaP ARN-509r2 cells): 54.95 | NKX3.1 gene expression (LNCaP ARN-509r2 cells): 10.20 | NOV gene expression (LNCaP ARN-509r2 cells): 0.07 | ORM1 gene expression (LNCaP ARN-509r2 cells): 625.99 | PLD1 gene expression (LNCaP ARN-509r2 cells): 0.02 | PSA gene expression (LNCaP ARN-509r2 cells): 7.89 | SLUG gene expression (LNCaP ARN-509r2 cells): 77.17 | STEAP4 gene expression (LNCaP ARN-509r2 cells): 377.41 | TMPRSS2 gene expression (LNCaP ARN-509r2 cells): 15.14 | AMIGO2 gene expression (LNCaP/AR-Luc cells): 0.54 | BDNF gene expression (LNCaP/AR-Luc cells): 0.18 | CAM2KN1 gene expression (LNCaP/AR-Luc cells): 0.11 | FASN gene expression (LNCaP/AR-Luc cells): 3.48 | FKBP5 gene expression (LNCaP/AR-Luc cells): 20.82 | HPGD gene expression (LNCaP/AR-Luc cells): 2.41 | NCAPD3 gene expression (LNCaP/AR-Luc cells): 17.27 | NKX3.1 gene expression (LNCaP/AR-Luc cells): 11.24 | NOV gene expression (LNCaP/AR-Luc cells): 0.47 | ORM1 gene expression (LNCaP/AR-Luc cells): 7.89 | PLD1 gene expression (LNCaP/AR-Luc cells): 0.15 | PSA gene expression (LNCaP/AR-Luc cells): 2.10 | SLUG gene expression (LNCaP/AR-Luc cells): 48.84 | STEAP4 gene expression (LNCaP/AR-Luc cells): 20.25 | TMPRSS2 gene expression (LNCaP/AR-Luc cells): 3.46 | AMIGO2 gene expression (LNCaP cells [10]): 0.68 | BDNF gene expression (LNCaP cells [10]): 0.40 | CAM2KN1 gene expression (LNCaP cells [10]): 0.13 | FASN gene expression (LNCaP cells [10]): 5.58 | FKBP5 gene expression (LNCaP cells [10]): 54.95 | HPGD gene expression (LNCaP cells [10]): 100.43 | NCAPD3 gene expression (LNCaP cells [10]): 104.69 | NKX3.1 gene expression (LNCaP cells [10]): 30.06 | NOV gene expression (LNCaP cells [10]): 0.15 | ORM1 gene expression (LNCaP cells [10]): 873.10 | PLD1 gene expression (LNCaP cells [10]): 0.02 | PSA gene expression (LNCaP cells [10]): 47.84 | SLUG gene expression (LNCaP cells [10]): 129.79 | STEAP4 gene expression (LNCaP cells [10]): 639.15 | TMPRSS2 gene expression (LNCaP cells [10]): 22.16
